From patent US20220030867A1 (priority 2018, published 2022)

How the values were obtained:
[1] = tested on: Botryotinia fuckeliana (Botrytis cinerea); experiment: Botryotinia fuckeliana (Botrytis cinerea) / liquid culture (gray mould); assay type: cell-based; conditions: growth inhibition photometrically 3-4 days after application, vs untreated control
Protocol: Botryotinia fuckeliana (Botrytis cinerea)/Liquid Culture (Gray Mould)
(§1) Conidia of the fungus from cryogenic storage are directly mixed into nutrient broth (Vogels broth). After placing a (DMSO) solution of test compound into a microtiter plate (96-well format), the nutrient broth containing the fungal spores is added. The test plates are incubated at 24° C. and the inhibition of growth is determined photometrically 3-4 days after application.

Fusarium culmorum [2] = experiment: microbe, parasite or virus in culture; assay type: cell-based; conditions: read-out: control of Fusarium culmorum
[3] = tested on: Glomerella lagenarium (Colletotrichum lagenarium); experiment: Glomerella lagenarium (Colletotrichum lagenarium) / liquid culture (anthracnose); assay type: cell-based; conditions: Colletotrichum orbiculare, growth inhibition photometrically 3-4 days after application, vs untreated control
Protocol: as §1, with “(PDB potato dextrose” for “(Vogels”, “measured” for “determined”

[4] = tested on: Magnaporthe grisea (Pyricularia oryzae); experiment: microbe, parasite or virus in culture; assay type: cell-based; conditions: read-out: control of Magnaporthe grisea
Fusarium culmorum [5] = experiment: whole plant or invertebrate; assay type: in vivo, Fusarium culmorum on wheat spikelets cv. Monsun; conditions: in Triticum aestivum, read-out: control of Fusarium culmorum
[6] = tested on: Magnaporthe grisea (Pyricularia oryzae); experiment: whole plant or invertebrate; assay type: in vivo, Magnaporthe grisea on rice leaf segments cv. Ballila; conditions: foliar, read-out: control of Magnaporthe grisea
Sclerotinia sclerotiorum = Sclerotinia sclerotiorum / liquid culture (cottony rot); assay type: cell-based; conditions: growth inhibition photometrically 3-4 days after application, vs untreated control
Protocol: Sclerotinia sclerotiorum/Liquid Culture (Cottony Rot)
as §1, with “Mycelia fragments of a newly grown liquid culture” for “Conidia”, “fungus” for “fungus from cryogenic storage”, “format)” for “format),”, “material” for “spores”

Row | SMILES | inhibition of growth at 200 ppm [1] [%] | inhibition of growth at 200 ppm (Fusarium culmorum [2]) [%] | inhibition of growth at 200 ppm [3] [%] | inhibition of growth at 200 ppm [4] [%] | pest or weed control at 200 ppm (Fusarium culmorum [5]) [%] | melting point [°C] | pest or weed control at 200 ppm [6] [%] | inhibition of growth at 20 ppm (Sclerotinia sclerotiorum) [%]
1 | Cc1nc2c(F)cccc2cc1NC(=O)[C@H](Cc1ccccc1)CC(C)(C)C [Compound F-33, (2S)-2-benzyl-N-(8-fluoro-2-methyl-3-quinolyl)-4,4-dimethyl-pentanamide] | ≥ 80 | ≥ 80 | ≥ 80 | ≥ 80 | – | – | – | –
2 | C=CCC(C)(Cc1ccccc1)C(=O)Nc1cnc2c(F)cccc2c1 (centres unmarked) [Compound E-78, 2-benzyl-N-(8-fluoro-3-quinolyl)-2-methyl-pent-4-enamide] | – | – | – | ≥ 80 | ≥ 80 | 146 to 149 | – | –
3 | Cc1nc2c(F)cccc2cc1NC(=O)C(C)(Cc1ccccc1)CC1(C)CC1 (centres unmarked) [Compound E-99, 2-benzyl-N-(8-fluoro-2-methyl-3-quinolyl)-2-methyl-3-(1-methylcyclopropyl)propanamide] | ≥ 80 | ≥ 80 | ≥ 80 | ≥ 80 | ≥ 80 | 151 to 152 | ≥ 80 | –
4 | C=C(Cl)C[C@H](Cc1ccccc1)C(=O)Nc1cc2cccc(F)c2nc1C [Compound F-26, (2S)-2-benzyl-4-chloro-N-(8-fluoro-2-methyl-3-quinolyl)pent-4-enamide] | ≥ 80 | ≥ 80 | ≥ 80 | ≥ 80 | ≥ 80 | – | ≥ 80 | ≥ 80
5 | C=C(C)C[C@@](C)(Cc1ccccc1)C(=O)Nc1cnc2c(F)cccc2c1 [Compound F-21, (2S)-2-benzyl-N-(8-fluoro-3-quinolyl)-2,4-dimethyl-pent-4-enamide] | – | – | – | ≥ 80 | ≥ 80 | – | ≥ 80 | ≥ 80
6 | Cc1c(NC(=O)C(C)(Cc2ccccc2)CC2(C)CC2)cnc2c(F)cccc12 (centres unmarked) [Compound E-100, 2-benzyl-N-(8-fluoro-4-methyl-3-quinolyl)-2-methyl-3-(1-methylcyclopropyl)propanamide] | ≥ 80 | ≥ 80 | ≥ 80 | ≥ 80 | ≥ 80 | 163 to 164 | ≥ 80 | ≥ 80
7 | C=C(Cl)CC(Cc1ccccc1)C(=O)Nc1cnc2c(F)cccc2c1 (centres unmarked) [Compound E-6, 2-benzyl-4-chloro-N-(8-fluoro-3-quinolyl)-pent-4-enamide] | – | – | – | ≥ 80 | – | 166 to 168 | ≥ 80 | –
8 | C#CCC(C)(Cc1ccccc1)C(=O)Nc1cc2cccc(F)c2nc1C (centres unmarked) [Compound E-2, 2-benzyl-N-(8-fluoro-2-methyl-3-quinolyl)-2-methyl-pent-4-ynamide] | – | – | – | ≥ 80 | ≥ 80 | – | ≥ 80 | –
9 | Cc1nc2c(F)cccc2cc1NC(=O)[C@H](Cc1ccccc1)CC1(C)CC1 [Compound F-37, (2S)-2-benzyl-N-(8-fluoro-2-methyl-3-quinolyl)-3-(1-methylcyclopropyl)propanamide] | ≥ 80 | ≥ 80 | ≥ 80 | ≥ 80 | ≥ 80 | – | – | –
10 | Cc1nc2c(F)cccc2cc1NC(=O)C(C)(Cc1ccccc1)CC(C)C (centres unmarked) [Compound E-86, 2-benzyl-N-(8-fluoro-2-methyl-3-quinolyl)-2,4-dimethyl-pentanamide] | – | – | – | ≥ 80 | ≥ 80 | – | – | ≥ 80
11 | CC(C)CC(C)(Cc1ccccc1)C(=O)Nc1cnc2ccccc2c1 (centres unmarked) [Compound E-85, 2-benzyl-2,4-dimethyl-N-(3-quinolyl)pentanamide] | – | – | – | ≥ 80 | – | 147 to 148 | – | –
12 | Cc1c(NC(=O)C(C)(Cc2ccccc2)CC(C)C)cnc2c(F)cccc12 (centres unmarked) [Compound E-84, 2-benzyl-N-(8-fluoro-4-methyl-3-quinolyl)-2,4-dimethyl-pentanamide] | – | – | – | ≥ 80 | ≥ 80 | 73 to 79 | – | ≥ 80
13 | CC(C)(C)CC(Cc1ccccc1)C(=O)Nc1cnc2c(F)cccc2c1 (centres unmarked) [Compound E-98, 2-benzyl-N-(8-fluoro-3-quinolyl)-4,4-dimethyl-pentanamide] | ≥ 80 | ≥ 80 | ≥ 80 | ≥ 80 | – | – | ≥ 80 | –
14 | C=C(Cl)CC(Cc1ccccc1)C(=O)Nc1cnc2c(F)cccc2c1C (centres unmarked) [Compound E-5, 2-benzyl-4-chloro-N-(8-fluoro-4-methyl-3-quinolyl)pent-4-enamide] | – | – | – | ≥ 80 | ≥ 80 | 53 to 58 | – | ≥ 80
15 | Cc1c(NC(=O)[C@H](Cc2ccccc2)CC2(C)CC2)cnc2c(F)cccc12 [Compound F-39, (2S)-2-benzyl-N-(8-fluoro-4-methyl-3-quinolyl)-3-(1-methylcyclopropyl)propanamide] | ≥ 80 | ≥ 80 | ≥ 80 | ≥ 80 | – | – | – | –
16 | CC(C)C[C@@](C)(Cc1ccccc1)C(=O)Nc1cnc2c(F)cccc2c1 [Compound F-20, (2S)-2-benzyl-N-(8-fluoro-3-quinolyl)-2,4-dimethyl-pentanamide] | – | – | – | ≥ 80 | ≥ 80 | – | – | ≥ 80
17 | C=C(Cl)C[C@@](C)(Cc1ccccc1)C(=O)Nc1cc2cccc(F)c2nc1C [Compound F-43, (2R)-2-benzyl-4-chloro-N-(8-fluoro-2-methyl-3-quinolyl)-2-methyl-pent-4-enamide] | ≥ 80 | – | ≥ 80 | – | ≥ 80 | – | ≥ 80 | –
18 | Cc1c(NC(=O)[C@@](C)(Cc2ccccc2)CC(C)C)cnc2c(F)cccc12 [Compound F-4, (2R)-2-benzyl-N-(8-fluoro-4-methyl-3-quinolyl)-2,4-dimethyl-pentanamide] | – | – | – | ≥ 80 | ≥ 80 | – | ≥ 80 | ≥ 80
19 | Cc1nc2c(F)cccc2cc1NC(=O)[C@](C)(Cc1cccc(F)c1)CC(F)(F)F [Compound F-32, (2R)-4,4,4-trifluoro-N-(8-fluoro-2-methyl-3-quinolyl)-2-[(3-fluorophenyl)methyl]-2-methyl-butanamide] | ≥ 80 | ≥ 80 | ≥ 80 | ≥ 80 | ≥ 80 | – | ≥ 80 | ≥ 80
20 | Cc1nc2c(F)cccc2cc1NC(=O)[C@@](C)(Cc1cccc(F)c1)CC(F)(F)F [Compound F-31, (2S)-4,4,4-trifluoro-N-(8-fluoro-2-methyl-3-quinolyl)-2-[(3-fluorophenyl)methyl]-2-methyl-butanamide] | ≥ 80 | – | ≥ 80 | – | ≥ 80 | – | ≥ 80 | ≥ 80
